Key:
Assay type in all cases: in vivo, Wistar rats
[1] = test system: sciatic nerve; assay: Histomorphometric study on fragments of the sciatic nerve, reversion study (Example 2); settings: established diabetic neuropathy, 100 μg EGF in 1 ml i.p. 3 days a week, evaluation after 30 days
Protocol: (§1) The aim of this study was to evaluate the neurorestoration effect of the pharmaceutical composition. Male Wistar rats between 200-250 grams of body is weight received a subcutaneous injection of streptozotocin at 75 mg/kg in sodium citrate buffer, and were allowed to evolve until 120 days after disease induction. All rats used in this experiment had shown sustained glucose levels above 15 mmol/L. Animals were handled and fed as previously described. A concurrent control group was set, where animals received saline instead of streptozotocin. […] After this period an electrophysiological characterization of all rats were done and animals were split in two random treatment groups:
(§2) Group II. Animals received the pharmaceutical composition with 100 μg of EGF in 1 ml, 3 days a week, by intraperitoneal route.
One month after conclusion of the treatment with either EGF containing composition or saline, and […] after disease induction, animals were sacrificed by an overdose of anesthesia and perfused with saline buffer pH 7.4. A total of ten animals per experimental group were included for histomorphometric studies, and an equivalent number of rats were used for biochemical determinations. In both systems the sciatic nerves from both limbs were dissected. The procedures were similar to those described for the neuropathic damage prevention assay. Samples taken for histological and o histomorphometric studies were stained with hematoxilin/eosin and toluidine blue. At least five fragments of the same nerve were quantitatively studied using MADIP program. The fragments were included in OCT blocks, post-fixed with glutaraldehyde, and sliced horizontal and transversally. The histological indicators assessed have been described above as well as the procedures used for the processing and evaluation: • Total number of blood vessels (in epineural/perineural) in 10 microscopic fields using 10× as constant magnification in longitudinal cuts of the nerve. • Percentage of demyelinated fibers. Evaluated by averaging the values per microscopic field (×20, at least five fields). • Percentage of myelin or non-myelin fibers with lesions (dilated or distorted) per microscopic field (×20, at least five fields). • Percentage of endoneurial collagenization (moderated: 25 to 50%; severe: more than 50% of the endoneurial area in transversal slices, and at least three different sections.

[2] = test system: diabetic rats; assay: Motor conduction velocity, sciatic-tibial route, prevention study (Example 1); settings: 75 μg EGF/ml, day 60
Protocol: (§3) Male Wistar, with 200-250 grams of body weight, received a subcutaneous injection of streptozotocin, at 75 mg/kg in sodium citrate buffer. Water was then replaced by a 10% sucrose solution during the next 24 h, to prevent deaths caused by hypoglycemia. Glucose levels in blood were monitored every morning during the next 72 hours after the injection. Only animals with sustained glucose values above 15 mmol/L were used. Rats were housing at 4 per cage and fed in the conventional way. A concurrent group of other 80 rats received citrate buffer without streptozotocin and was handled in a similar fashion to the diabetic group. The average value for glycemia during the 72 hours in this group was 5.87 mmol/L.
(§4) All treatments were conducted during 8 weeks, starting one week after streptozotocin injection. The composition used contained 75 μg of human recombinant EGF/ml. Several types of observations were conducted in the animals under study:
Fifteen animals were used in each experimental group. In diabetic neuropathy conduction velocity is generally diminished.
Distal supra-maximal stimulation in the sciatic-tibial route using bipolar electrodes is was used to study motor conduction. Determination of the conduction velocity in the sensory routes was carried out by applying a stimulus at a proximal point in the tail and measure it 3 cm away.

[3] = test system: Lipoprotein Lipase (LPL); assay: Lipoprotein lipase (LPL) enzymatic activity in sciatic nerve fragments, reversion study (Example 2); settings: established diabetic neuropathy, 100 μg EGF in 1 ml i.p. 3 days a week for one month
Protocol: Fragments of the nerve from each animal were incubated together with 3 μg/ml heparin in Krebs-Ringer buffer at 37° C. for 50 minutes. Aliquots from these samples were then incubated in the presence of [^14C] triolein-phosphatidylcholine. ^14C labeled fatty acids were quantified by the classic methods. LPL activity was expressed in nanomoles of released fatty acids (RFA) per minute and gram of tissue.
as §1, §2
The aim of this study was to compare the LPL enzymatic activity after one month of treatment with EGF containing composition, as compared to saline treated diabetic animals. […]

[4] = test system: Redox state in fragments from the sciatic nerve; assay: Redox profile in fragments from the sciatic nerve, prevention study (Example 1)
Protocol: as §3, §4
Once the treatment was concluded, animals were sacrificed at day 70 after induction of diabetes, 10 days after the last dose was given, and the analysis described above is was completed. Animals were sacrificed by an overdose of anesthesia and perfused with saline buffer pH 7.4. A total of ten animals per experimental group were included for histomorphometric studies, and an equivalent number of rats were used for biochemical determinations. In both systems the sciatic nerves from both limbs were dissected; fragments were kept at −70° C. until processed. The samples taken for histological and/or histomorphometric studies were stained with hematoxilin/eosin and toluidine blue. At least five fragments of the same nerve were quantitatively studied using MADIP program. The fragments were included in blocks of celloidine and gelatin, and those blocks were horizontal and transversally sliced. The following histological indicators were evaluated: • Total number of blood vessels (in epineural/perineural) in 10 microscopic fields using 10× as constant magnification in longitudinal cuts of the nerve. • Percentage of demyelinated fibers. Evaluated by averaging the values per microscopic field (×20, at least five fields). • Percentage of myelin or non-myelin fibers with lesions (dilated or distorted) per microscopic field (×20, at least five fields). • Percentage of endoneurial collagenization (moderated: 25 to 50%; severe: more than 50% of the endoneurial area in transversal slices, and at least three different sections.
Ten animals per experimental group were used to conduct biochemical determinations in the fragments of sciatic nerve collected. The biochemical parameters studied were the following:
Redox Profile: • Activity of total Superoxide Dismutase enzyme (tSOD). • Activity of catalase enzyme. • Intra-axonal accumulation of total hydroperoxides (HPT). • Intra-axonal accumulation of malonyldialdehyde (MDA).

[5] = Treatment group 1 (once weekly i.p., 8 weeks)
[6] = Treatment group 3 (three times a week i.p., 8 weeks)

Substance: EGF containing pharmaceutical composition: Composition with human recombinant EGF: 75 μg/ml in Example 1, 100 μg in 1 ml in Example 2, given intraperitoneally
- % of collagenized area [1]: 46.3 ± 9.5%
- % of demyelinated fibers [1]: 50.6 ± 12.3%
- % of fibers with lesions [1]: 52.6 ± 8.3%
- No. of blood vessels ([1]; 10 microscopic fields): 86.5 ± 14.6
- MCV (motor conduction velocity) ([2]; 1 ml i.p. once weekly (Treatment group 1)): 45 ± 13 m/s
- MCV (motor conduction velocity) ([2]; 1 ml i.p. three times a week (Treatment group 3)): 56 ± 11 m/s
- LPL activity in the sciatic nerve [3]: 6.29 ± 1.67 nmoles AGL/min/g
- Catalase activity [4, 5]: 274.60 ± 52.3 units per milligram, of protein per minute
- HPT (total hydroperoxides) [4, 5]: 143.05 ± 1.98 nmol/mg of protein
- MDA (malonyldialdehyde) [4, 5]: 0.24 ± 0.04 nmol/mg of protein
- tSOD (total Superoxide Dismutase activity) [4, 5]: 958.17 ± 244.61 units per milligram, of protein per minute
- Catalase activity [4, 6]: 37.62 ± 8.13 units per milligram, of protein per minute
- HPT (total hydroperoxides) [4, 6]: 25.15 ± 1.81 nmol/mg of protein
- MDA (malonyldialdehyde) [4, 6]: 0.08 ± 0.02 nmol/mg of protein
- tSOD (total Superoxide Dismutase activity) [4, 6]: 2102.83 ± 112.67 units per milligram, of protein per minute
